Tests used:
[1] = target: Tyrosine-protein kinase ABL2 (Homo sapiens) (UniProt P42684); experiment: Residual activity of ABL2 at 0.1 uM by microplate scintillation counting
[2] = target: SRSF protein kinase 1 (Homo sapiens) (UniProt Q96SB4); experiment: Residual activity of SRPK1 at 0.1 uM by microplate scintillation counting
[3] = target: Ribosomal protein S6 kinase alpha-3 (Homo sapiens) (UniProt P51812); experiment: Residual activity of RPS6KA3 at 1 uM by microplate scintillation counting
[4] = target: Proto-oncogene tyrosine-protein kinase ROS (Homo sapiens) (UniProt P08922); experiment: Residual activity of ROS at 10 uM by microplate scintillation counting
Chain of Proto-oncogene tyrosine-protein kinase ROS (Homo sapiens) (P08922 whole entry): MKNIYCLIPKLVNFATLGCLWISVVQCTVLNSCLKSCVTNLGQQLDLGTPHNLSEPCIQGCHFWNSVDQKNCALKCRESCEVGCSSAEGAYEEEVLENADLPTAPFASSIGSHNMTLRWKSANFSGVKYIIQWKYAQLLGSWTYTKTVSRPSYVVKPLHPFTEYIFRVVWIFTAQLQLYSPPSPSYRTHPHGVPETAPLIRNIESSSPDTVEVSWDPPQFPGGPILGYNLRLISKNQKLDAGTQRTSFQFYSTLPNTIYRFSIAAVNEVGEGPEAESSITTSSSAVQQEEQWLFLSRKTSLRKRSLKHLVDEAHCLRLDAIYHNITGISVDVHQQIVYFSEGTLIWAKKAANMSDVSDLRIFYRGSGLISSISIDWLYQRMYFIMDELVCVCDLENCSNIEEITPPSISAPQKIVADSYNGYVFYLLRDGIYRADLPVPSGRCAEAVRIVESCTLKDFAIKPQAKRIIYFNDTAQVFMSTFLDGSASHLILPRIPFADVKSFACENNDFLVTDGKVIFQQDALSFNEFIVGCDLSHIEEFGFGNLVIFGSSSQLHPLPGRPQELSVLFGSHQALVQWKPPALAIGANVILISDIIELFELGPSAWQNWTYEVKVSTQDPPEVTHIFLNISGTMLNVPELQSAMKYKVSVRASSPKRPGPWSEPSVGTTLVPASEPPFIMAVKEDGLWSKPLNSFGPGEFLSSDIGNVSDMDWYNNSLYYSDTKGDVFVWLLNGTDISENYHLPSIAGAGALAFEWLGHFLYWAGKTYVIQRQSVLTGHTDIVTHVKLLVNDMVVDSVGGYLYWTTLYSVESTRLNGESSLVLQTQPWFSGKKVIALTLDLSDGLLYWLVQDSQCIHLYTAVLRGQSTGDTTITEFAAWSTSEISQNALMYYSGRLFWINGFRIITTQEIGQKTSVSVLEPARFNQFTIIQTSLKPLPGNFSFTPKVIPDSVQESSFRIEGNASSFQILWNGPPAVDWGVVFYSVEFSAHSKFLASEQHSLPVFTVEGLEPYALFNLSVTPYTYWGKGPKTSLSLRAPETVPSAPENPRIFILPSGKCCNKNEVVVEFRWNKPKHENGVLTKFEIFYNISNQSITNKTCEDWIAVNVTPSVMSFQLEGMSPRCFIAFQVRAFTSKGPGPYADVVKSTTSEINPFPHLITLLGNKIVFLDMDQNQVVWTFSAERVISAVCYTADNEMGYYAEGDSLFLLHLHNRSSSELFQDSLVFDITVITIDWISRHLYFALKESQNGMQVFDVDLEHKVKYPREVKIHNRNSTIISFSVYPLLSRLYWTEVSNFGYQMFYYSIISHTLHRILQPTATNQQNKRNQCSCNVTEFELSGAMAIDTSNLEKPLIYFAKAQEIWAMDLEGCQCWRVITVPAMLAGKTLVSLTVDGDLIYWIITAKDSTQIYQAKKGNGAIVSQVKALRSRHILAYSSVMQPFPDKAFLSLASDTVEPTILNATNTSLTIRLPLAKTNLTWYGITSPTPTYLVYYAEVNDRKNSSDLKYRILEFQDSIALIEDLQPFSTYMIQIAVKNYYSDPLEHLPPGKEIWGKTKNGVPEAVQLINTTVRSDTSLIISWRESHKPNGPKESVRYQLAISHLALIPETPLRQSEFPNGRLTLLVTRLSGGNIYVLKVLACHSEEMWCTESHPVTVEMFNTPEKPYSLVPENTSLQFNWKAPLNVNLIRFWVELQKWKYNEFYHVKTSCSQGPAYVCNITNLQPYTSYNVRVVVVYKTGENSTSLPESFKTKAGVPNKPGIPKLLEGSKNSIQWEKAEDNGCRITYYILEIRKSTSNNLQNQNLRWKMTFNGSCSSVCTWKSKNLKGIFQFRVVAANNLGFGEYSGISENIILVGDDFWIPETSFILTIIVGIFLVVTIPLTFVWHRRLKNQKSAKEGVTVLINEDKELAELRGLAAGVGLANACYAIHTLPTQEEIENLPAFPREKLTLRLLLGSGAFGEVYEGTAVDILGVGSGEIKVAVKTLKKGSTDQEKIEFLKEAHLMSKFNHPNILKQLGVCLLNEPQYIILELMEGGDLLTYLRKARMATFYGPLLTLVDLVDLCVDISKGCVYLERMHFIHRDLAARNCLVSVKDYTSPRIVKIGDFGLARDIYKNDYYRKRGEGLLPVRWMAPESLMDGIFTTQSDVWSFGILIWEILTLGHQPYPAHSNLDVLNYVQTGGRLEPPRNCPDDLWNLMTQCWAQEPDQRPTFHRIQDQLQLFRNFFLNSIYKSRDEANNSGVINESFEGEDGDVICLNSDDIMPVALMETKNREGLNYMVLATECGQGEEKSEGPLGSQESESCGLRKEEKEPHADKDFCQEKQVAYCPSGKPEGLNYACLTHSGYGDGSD

[5] = target: T1, Dual specificity protein kinase TTK (Homo sapiens) (UniProt P33981); experiment: Residual activity of TTK at 0.1 uM by microplate scintillation counting
T1 sequence (whole entry): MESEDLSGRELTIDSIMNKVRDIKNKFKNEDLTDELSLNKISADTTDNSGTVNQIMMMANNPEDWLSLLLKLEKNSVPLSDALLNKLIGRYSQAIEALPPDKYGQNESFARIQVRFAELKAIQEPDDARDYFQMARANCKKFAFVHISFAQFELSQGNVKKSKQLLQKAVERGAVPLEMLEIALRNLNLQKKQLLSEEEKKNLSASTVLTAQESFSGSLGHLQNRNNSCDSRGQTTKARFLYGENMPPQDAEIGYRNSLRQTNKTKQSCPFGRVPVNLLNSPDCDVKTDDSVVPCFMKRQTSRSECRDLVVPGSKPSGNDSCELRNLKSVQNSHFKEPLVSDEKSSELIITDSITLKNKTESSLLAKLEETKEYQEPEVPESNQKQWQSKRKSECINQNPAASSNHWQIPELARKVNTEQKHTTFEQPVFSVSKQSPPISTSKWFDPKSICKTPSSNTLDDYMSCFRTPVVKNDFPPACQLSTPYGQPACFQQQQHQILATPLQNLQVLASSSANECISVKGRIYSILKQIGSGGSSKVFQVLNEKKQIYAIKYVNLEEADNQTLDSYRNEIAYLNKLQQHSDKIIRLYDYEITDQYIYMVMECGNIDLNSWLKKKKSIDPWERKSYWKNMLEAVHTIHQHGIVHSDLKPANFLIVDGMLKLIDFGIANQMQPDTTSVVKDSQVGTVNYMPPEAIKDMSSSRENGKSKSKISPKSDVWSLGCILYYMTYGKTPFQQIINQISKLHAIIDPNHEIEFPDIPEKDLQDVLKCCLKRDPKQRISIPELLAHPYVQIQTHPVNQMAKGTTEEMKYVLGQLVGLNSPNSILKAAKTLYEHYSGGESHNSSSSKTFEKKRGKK

[6] = target: T2, NUAK family SNF1-like kinase 1 (Homo sapiens) (UniProt O60285); experiment: Residual activity of ARK5 at 1 uM by microplate scintillation counting
T2 sequence (whole entry): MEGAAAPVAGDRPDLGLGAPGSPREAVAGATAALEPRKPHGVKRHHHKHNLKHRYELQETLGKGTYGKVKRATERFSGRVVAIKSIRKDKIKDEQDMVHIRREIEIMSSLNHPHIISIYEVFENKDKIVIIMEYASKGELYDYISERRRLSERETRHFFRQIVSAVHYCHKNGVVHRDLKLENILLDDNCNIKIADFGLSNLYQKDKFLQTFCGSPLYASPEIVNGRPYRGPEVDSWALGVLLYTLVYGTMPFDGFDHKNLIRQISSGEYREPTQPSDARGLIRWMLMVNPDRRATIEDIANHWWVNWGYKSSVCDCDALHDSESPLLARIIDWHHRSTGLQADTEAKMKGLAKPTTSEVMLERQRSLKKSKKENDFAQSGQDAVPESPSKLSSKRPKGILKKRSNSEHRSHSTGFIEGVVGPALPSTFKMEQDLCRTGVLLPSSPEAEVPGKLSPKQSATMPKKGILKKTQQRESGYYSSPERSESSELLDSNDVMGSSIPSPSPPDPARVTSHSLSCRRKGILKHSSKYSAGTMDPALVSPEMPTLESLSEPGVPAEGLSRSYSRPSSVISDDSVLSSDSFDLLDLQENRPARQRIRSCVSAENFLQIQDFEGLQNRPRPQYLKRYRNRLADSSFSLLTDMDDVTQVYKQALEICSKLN

[7] = target: T3, Tyrosine-protein kinase JAK3 (Homo sapiens) (UniProt P52333); experiment: Residual activity of JAK3 at 1 uM by microplate scintillation counting
T3 sequence (whole entry): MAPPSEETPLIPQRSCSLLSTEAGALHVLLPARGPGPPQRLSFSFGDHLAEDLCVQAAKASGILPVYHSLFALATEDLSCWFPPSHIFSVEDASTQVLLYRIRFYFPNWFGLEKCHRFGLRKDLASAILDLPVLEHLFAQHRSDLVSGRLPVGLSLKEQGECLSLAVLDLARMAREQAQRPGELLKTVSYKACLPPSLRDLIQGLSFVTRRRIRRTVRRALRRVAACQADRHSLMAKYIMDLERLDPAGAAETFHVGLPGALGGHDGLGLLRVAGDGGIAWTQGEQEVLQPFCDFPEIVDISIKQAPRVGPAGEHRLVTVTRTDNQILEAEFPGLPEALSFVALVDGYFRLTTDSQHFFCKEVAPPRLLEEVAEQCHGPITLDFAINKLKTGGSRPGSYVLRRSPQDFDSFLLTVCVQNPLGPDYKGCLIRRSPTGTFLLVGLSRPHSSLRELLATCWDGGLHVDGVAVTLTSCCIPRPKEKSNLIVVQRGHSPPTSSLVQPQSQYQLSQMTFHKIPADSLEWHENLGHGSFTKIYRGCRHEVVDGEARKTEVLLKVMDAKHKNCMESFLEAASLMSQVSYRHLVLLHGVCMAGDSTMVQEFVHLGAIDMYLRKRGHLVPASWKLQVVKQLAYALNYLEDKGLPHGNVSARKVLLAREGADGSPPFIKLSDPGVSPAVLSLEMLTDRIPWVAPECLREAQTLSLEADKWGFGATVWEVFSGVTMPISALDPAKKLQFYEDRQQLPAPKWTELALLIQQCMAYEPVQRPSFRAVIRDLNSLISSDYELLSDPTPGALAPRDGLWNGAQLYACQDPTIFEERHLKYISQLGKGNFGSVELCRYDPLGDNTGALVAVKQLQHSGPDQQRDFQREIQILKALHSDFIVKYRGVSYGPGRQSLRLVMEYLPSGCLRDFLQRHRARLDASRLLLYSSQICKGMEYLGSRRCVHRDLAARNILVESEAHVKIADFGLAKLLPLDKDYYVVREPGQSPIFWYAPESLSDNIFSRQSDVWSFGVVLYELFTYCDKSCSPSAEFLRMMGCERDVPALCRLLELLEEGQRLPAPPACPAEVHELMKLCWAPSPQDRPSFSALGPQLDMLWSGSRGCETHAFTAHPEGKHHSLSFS

[8] = target: Serine/threonine-protein kinase N2 (Homo sapiens) (UniProt Q16513); experiment: Residual activity of PRK2 at 1 uM by microplate scintillation counting
Chain of Serine/threonine-protein kinase N2 (Homo sapiens) (Q16513 whole entry, looked up): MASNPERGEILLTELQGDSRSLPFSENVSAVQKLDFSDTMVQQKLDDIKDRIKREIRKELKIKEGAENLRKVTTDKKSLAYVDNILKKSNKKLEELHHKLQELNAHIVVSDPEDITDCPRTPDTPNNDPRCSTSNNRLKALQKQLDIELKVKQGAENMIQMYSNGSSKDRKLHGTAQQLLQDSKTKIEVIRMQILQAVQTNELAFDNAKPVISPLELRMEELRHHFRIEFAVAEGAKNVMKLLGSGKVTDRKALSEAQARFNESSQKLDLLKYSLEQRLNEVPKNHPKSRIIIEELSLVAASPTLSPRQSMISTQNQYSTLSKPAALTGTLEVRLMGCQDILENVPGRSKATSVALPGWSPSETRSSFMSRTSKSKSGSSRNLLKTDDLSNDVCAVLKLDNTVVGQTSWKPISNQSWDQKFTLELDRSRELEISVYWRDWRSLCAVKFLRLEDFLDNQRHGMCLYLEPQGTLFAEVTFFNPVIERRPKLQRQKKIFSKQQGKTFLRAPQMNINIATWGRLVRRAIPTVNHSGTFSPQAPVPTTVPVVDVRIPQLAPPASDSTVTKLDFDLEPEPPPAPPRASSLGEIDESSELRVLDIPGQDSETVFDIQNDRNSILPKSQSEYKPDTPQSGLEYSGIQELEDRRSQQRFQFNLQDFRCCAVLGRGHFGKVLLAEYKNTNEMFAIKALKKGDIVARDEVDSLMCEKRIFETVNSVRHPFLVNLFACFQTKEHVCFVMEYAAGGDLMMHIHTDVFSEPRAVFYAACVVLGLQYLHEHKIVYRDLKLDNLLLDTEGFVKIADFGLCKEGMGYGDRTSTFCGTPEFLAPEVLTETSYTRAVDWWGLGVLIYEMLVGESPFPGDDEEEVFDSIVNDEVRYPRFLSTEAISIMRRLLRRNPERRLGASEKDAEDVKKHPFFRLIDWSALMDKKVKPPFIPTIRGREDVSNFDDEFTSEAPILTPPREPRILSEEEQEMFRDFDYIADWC

Chain of Tyrosine-protein kinase ABL2 (Homo sapiens) (P42684 whole entry): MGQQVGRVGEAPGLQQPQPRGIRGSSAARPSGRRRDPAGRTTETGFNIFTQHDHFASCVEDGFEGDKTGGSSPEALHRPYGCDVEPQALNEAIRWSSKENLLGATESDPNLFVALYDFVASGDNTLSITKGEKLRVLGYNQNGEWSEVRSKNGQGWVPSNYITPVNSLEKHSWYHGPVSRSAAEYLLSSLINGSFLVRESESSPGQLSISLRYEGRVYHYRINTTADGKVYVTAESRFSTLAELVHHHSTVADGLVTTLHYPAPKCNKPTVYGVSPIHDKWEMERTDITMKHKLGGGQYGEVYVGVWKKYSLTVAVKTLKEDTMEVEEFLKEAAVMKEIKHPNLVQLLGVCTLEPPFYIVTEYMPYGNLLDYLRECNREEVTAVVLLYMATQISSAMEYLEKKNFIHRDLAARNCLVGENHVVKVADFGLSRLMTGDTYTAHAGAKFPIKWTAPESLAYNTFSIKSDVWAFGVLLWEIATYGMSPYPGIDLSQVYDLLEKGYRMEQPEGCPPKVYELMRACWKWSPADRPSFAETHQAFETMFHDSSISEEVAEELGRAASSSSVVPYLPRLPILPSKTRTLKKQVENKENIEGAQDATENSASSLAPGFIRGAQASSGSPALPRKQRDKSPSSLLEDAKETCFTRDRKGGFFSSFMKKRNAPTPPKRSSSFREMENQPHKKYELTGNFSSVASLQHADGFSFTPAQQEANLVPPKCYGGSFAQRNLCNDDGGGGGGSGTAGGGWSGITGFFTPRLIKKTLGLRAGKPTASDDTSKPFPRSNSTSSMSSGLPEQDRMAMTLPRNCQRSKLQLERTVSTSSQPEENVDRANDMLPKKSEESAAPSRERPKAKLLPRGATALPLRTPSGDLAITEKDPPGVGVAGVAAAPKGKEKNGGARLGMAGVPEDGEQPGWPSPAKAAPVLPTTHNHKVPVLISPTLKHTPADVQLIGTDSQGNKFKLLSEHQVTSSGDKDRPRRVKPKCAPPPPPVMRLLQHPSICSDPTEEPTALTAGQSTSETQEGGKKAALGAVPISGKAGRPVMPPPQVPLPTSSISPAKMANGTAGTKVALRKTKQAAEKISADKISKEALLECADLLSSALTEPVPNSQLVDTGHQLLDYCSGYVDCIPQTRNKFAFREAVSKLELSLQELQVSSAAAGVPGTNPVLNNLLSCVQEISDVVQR

Compound	residual activity [1] [%]	residual activity [2] [%]	residual activity [3] [%]	residual activity [4] [%]	residual activity [5] [%]	residual activity [6] [%]	residual activity [7] [%]	residual activity [8] [%]
COc1cc2c(Oc3ccc(-c4nc5ccccc5s4)cc3)ncnc2cc1OCCCN1CCN(C)CC1	100	96	85	47	89	88	101	66
COc1cc2c(Oc3ccc(-c4nc5ccccc5s4)cc3F)ncnc2cc1OCCCN1CCN(C)CC1	96	91	95	38	82	101	92	70
COc1cc2c(Oc3ccc(-c4nc5ccccc5s4)cc3)ncnc2cc1OCCCN1CCCC1	116	103	93	54	99	91	93	97
